Reference: patent US9492426B2, “Mycophenolic acid analogues as anti-tumor chemosensitizing agents” (Texas A & M University System, priority 2011, dated 2016)
Read-outs that look alike come from different tables or passages of the source.

What was measured:
MDA-MB-231 cells = experiment: BrdU labeling (cell proliferation) in MDA-MB-231 cells; format: cell-based, human; settings: 5-FU 0.15 ug/ml alone or MPA 0.19 uM alone
Method: Primary antibodies used for immunofluorescence included rabbit anti-NS (Ab138, Cocalico), rat anti-BrdU (BU1/75, Accurate), and mouse anti-fibrillarin (38F3, EnCor) antibodies. To measure cell proliferation, cultures were treated with bromodeoxyuridine (BrdU, Accurate, OBT0030) 1 hour before harvest.

[1] = tested on: dysplastic oral keratinocyte (DOK) cells; experiment: Growth inhibition (IC50) and combination index in dysplastic oral keratinocyte cells; format: cell-based; settings: single agent, read-out: IC50 concentration
Method: Cells were plated in 96-well plates for one day and received drug treatments for 3 days. The plating cell densities were 2,000 cells/well for human cancer cell lines, 3,000 cells/well for tumor sphere cells, and 10,000 cells/well for primary tumor cells. Following the addition of MTT solutions (10 μl, 5 mg/ml), cells were incubated for 4 hours to allow MTT to be metabolized to formazan. Formazan was then dissolved in DMSO and measured by spectrophotometer at 560 nm.
The tumor growth-inhibitory curves of individual drugs were first measured by the MTT assay over a range of five concentrations with three-fold increment. The half-inhibitory concentrations (IC50) were calculated by Calcusyn program (Biosoft, Ferguson, Mo.). The combined effects were measured by mixing two drugs at the 4:1, 2:1, 1:1, 1:2, or 1:4 ratio of their respective IC50 concentrations. Each combination was tested for its tumor growth-inhibitory effect over a range of five different dosages, and calculated for its CI using the Calcusyn program.

pre-rRNA transcripts = experiment: Real-time RT-PCR of pre-rRNA transcripts; format: cell-based
Method: The AC(t) values between the target message and two reference messages (HMG-14 and […]) were determined using the MyiQ single-color real-time PCR detection system and supermix SYBR green reagent. The AAC(t) values were measured from two biological replicates and two technical repeats (n=4). Primer sequences are: SJ1, 5′-[…]-3′ and 5′-[…]-3′; SJ2, 5′-[…]-3′ and 5′-[…]-3′; SJ3, 5′-[…]-3′ and 5′-[…]-3′; and 18S, 5′-[…]-3′ and 5′-[…]-3′.
The anti-tumor activity of MPA has been linked to nucleolar stress. To investigate whether the synergy of MPA on 5-FU is related to nucleolar stress, Applicants tested the anti-tumor effect of 5-FU in combination with two inhibitors (actinomycin D [AMD] and ADR). Both drugs trigger nucleolar disassembly, but differ in that low-dose AMD (0.05 ug/ml) inhibits the activity of RNA polymerase-I, whereas ADR (2 uM) inhibits the activity of RNA polymerase-II. […] To determine how 5-FU and MPA affect the synthesis or processing of pre-rRNAs, Applicants used real-time RT-PCR to measure the amounts of rRNA transcripts with the splice junction-1 (SJ-1), SJ-2, SJ-3, and 18S rRNA sequences (FIG. 3B). […] By contrast, 5-FU alone increases 47S pre-rRNA and decreases the amount of SJ-3-containing transcripts.

nucleostemin = experiment: Nucleostemin protein level in MDA-MB-231 cells; format: cell-based, human
Text: To test the idea that nucleostemin may be involved in mediating the synergy between MPA and 5-FU, Applicants first confirmed that MPA treatment decreases the protein level of endogenous nucleostemin but not that of GNL3L and Ngp-1, the two nucleostemin homologues in vertebrate (FIG. 4A). […] Applicants noted that cells in the three control groups appear to be more resistant to the 5-FU/MPA-combined treatment than to the parental MDA-MB-231 cells, which may be caused by the G418/puromycin drug selection process.

Compound | proliferative rate (BrdU labeling) (MDA-MB-231 cells) | IC50 ([1]; Keratinocyte) | 47S pre-rRNA (pre-rRNA transcripts) | amount of SJ-3-containing transcripts (pre-rRNA transcripts) | protein level of endogenous nucleostemin (nucleostemin) | amount of pre-rRNA transcripts (SJ-1, SJ-2, SJ-3, 18S), including 47S pre-rRNA (pre-rRNA transcripts) | IC50 [1]
O=c1[nH]cc(F)c(=O)[nH]1 [5-FU, 5-fluorouracil] | does not decrease | 1.67 µg/mL | increases | decreases | – | – | –
COc1c(C)c2c(c(O)c1C/C=C(\C)CCC(=O)O)C(=O)OC2 [MPA, mycophenolic acid] | does not decrease | 6.67 µM | – | – | decreases | decrease the amount of pre-rRNA transcripts | –
O=C1[O][Pt]2([NH][C@@H]3CCCC[C@H]3[NH]2)[O]C1=O [oxaliplatin] | – | – | – | – | – | – | 0.83 µM
CC(=O)O[C@H]1C(=O)[C@@]2(C)[C@H]([C@H](OC(=O)c3ccccc3)[C@]3(O)C[C@H](OC(=O)[C@H](O)[C@@H](NC(=O)c4ccccc4)c4ccccc4)C(C)=C1C3(C)C)[C@]1(OC(C)=O)CO[C@@H]1C[C@@H]2O [paclitaxel] | – | 0.21 µM | – | – | – | – | –
